O=[N+]([O-])c1cccc2cccc([N+](=O)[O-])c12
solubility (mole fraction)
Settings	in acetone	in acetonitrile	in chloroform	in ethanol	in ethyl acetate	in isopropanol	in methanol	in n-butanol	in toluene
273.15 K	0.0103	0.00295	0.00311	0.000242	0.00414	8.97e-05	0.000293	0.000155	0.00119
275.65 K	0.0113	0.00331	0.0035	0.000267	0.00446	0.000103	0.000327	0.000178	0.00125
278.15 K	0.0119	0.0039	0.00382	0.000294	0.00471	0.000126	0.000356	0.00021	0.00138
280.65 K	0.013	0.00465	0.0042	0.000323	0.00522	0.000146	0.000398	0.000237	0.00157
283.15 K	0.014	0.00528	0.00473	0.000351	0.00551	0.000173	0.000429	0.000272	0.00171
285.65 K	0.0152	0.00597	0.00508	0.000385	0.00607	0.000198	0.000485	0.000314	0.00188
288.15 K	0.0163	0.00661	0.00561	0.000427	0.00659	0.000224	0.000536	0.000356	0.00205
291.15 K	0.0177	0.00761	0.00601	0.000484	0.0072	0.000265	0.000599	0.000411	0.00235
293.15 K	0.0189	0.00821	–	0.000529	0.00765	0.000296	0.000641	0.000449	0.00255
295.65 K	0.0205	0.00921	0.00732	0.000584	0.00822	0.000334	0.000696	0.000504	0.0028
298.15 K	0.0223	0.0102	0.00787	0.000646	–	0.000382	0.000758	–	0.00309
300.65 K	0.0243	0.0112	0.0084	0.00071	0.00947	0.00043	0.000821	0.000623	0.00344
303.15 K	0.0261	0.012	0.00923	0.000789	0.0102	0.000482	0.000891	0.00069	0.00382
305.65 K	0.028	0.013	0.00983	0.000878	0.011	0.000536	0.000971	0.000759	0.00427
308.15 K	0.0306	0.014	0.0107	0.000994	0.0119	0.000605	0.00106	0.000832	0.00468

From BigSolDB 2.1
